From the supplement of paper PMC13380429
± gives the standard deviation of the averaged measurements.

Tests used:
Conditions in all cases: 72 h
Vero E6 [1] = assay: relative viability EC50 (midpoint between 100% and the lowest measured viability); higher = less toxic
U2OS [2] = assay: as above
Calu-3 [3] = assay: as above
HepG2 [4] = assay: as above
Caco-2 [5] = assay: as above
Vero E6 [6] = assay: drug sensitivity score (DSS) for viability; higher = more toxic; extreme values may be limits of the assay
U2OS [7] = assay: as above
Calu-3 [8] = assay: as above
HepG2 [9] = assay: as above
Caco-2 [10] = assay: as above
Vero E6 [11] = assay: cell viability relative to DMSO; higher = less toxic
U2OS [12] = assay: as above
Calu-3 [13] = assay: as above
HepG2 [14] = assay: as above
Caco-2 [15] = assay: as above

Compound | relative viability EC50 (Vero E6 [1]) | relative viability EC50 (U2OS [2]) | relative viability EC50 (Calu-3 [3]) | relative viability EC50 (HepG2 [4]) | relative viability EC50 (Caco-2 [5]) | drug sensitivity score (Vero E6 [6]) | drug sensitivity score (U2OS [7]) | drug sensitivity score (Calu-3 [8]) | drug sensitivity score (HepG2 [9]) | drug sensitivity score (Caco-2 [10]) | cell viability (Vero E6 [11]; 1 nM) | cell viability (Vero E6 [11]; 10 nM) | cell viability (Vero E6 [11]; 100 nM) | cell viability (Vero E6 [11]; 1000 nM) | cell viability (Vero E6 [11]; 10000 nM) | cell viability (U2OS [12]; 1 nM) | cell viability (U2OS [12]; 10 nM) | cell viability (U2OS [12]; 100 nM) | cell viability (U2OS [12]; 1000 nM) | cell viability (U2OS [12]; 10000 nM) | cell viability (Calu-3 [13]; 1 nM) | cell viability (Calu-3 [13]; 10 nM) | cell viability (Calu-3 [13]; 100 nM) | cell viability (Calu-3 [13]; 1000 nM) | cell viability (Calu-3 [13]; 10000 nM) | cell viability (HepG2 [14]; 1 nM) | cell viability (HepG2 [14]; 10 nM) | cell viability (HepG2 [14]; 100 nM) | cell viability (HepG2 [14]; 1000 nM) | cell viability (HepG2 [14]; 10000 nM) | cell viability (Caco-2 [15]; 1 nM) | cell viability (Caco-2 [15]; 10 nM) | cell viability (Caco-2 [15]; 100 nM) | cell viability (Caco-2 [15]; 1000 nM) | cell viability (Caco-2 [15]; 10000 nM)
COc1ccc2nc3cc(Cl)ccc3c(Nc3cc(CN4CCCC4)c(O)c(CN4CCCC4)c3)c2n1 [pyronaridine] | 2.93 µM | 3.34 µM | 3.54 µM | 2.38 µM | 1.87 µM | 6 | 3.6 | 2.5 | 7.1 | 5.9 | 104% | 102% | 108% | 96.7% | 0.1% | 98.3% | 104% | 97.2% | 102% | 31.7% | 102% | 111% | 95.5% | 104% | 46.4% | 105% | 87% | 99.8% | 90.5% | -0.1% | 99.2% | 95.8% | 100% | 87.9% | 29.4%
NCC(CC(=O)O)c1ccc(Cl)cc1 (stereo not given) [baclofen] | > 10 µM | > 10 µM | > 10 µM | > 10 µM | > 10 µM | 0 | 0 | 0 | 0 | 0 | 97.75 ± 0.071% | 96.8 ± 1.7% | 99.7 ± 3.2% | 96.8 ± 3.8% | 104 ± 6.9% | 96.8 ± 1.1% | 101 ± 2.5% | 95.5 ± 2.3% | 101 ± 5.4% | 98.8 ± 8% | 98.9 ± 7.8% | 104 ± 5.4% | 98.6 ± 2% | 94.8 ± 4.7% | 104 ± 4.7% | 101 ± 2.9% | 104 ± 9.8% | 106.2 ± 0.99% | 102 ± 7.6% | 99.8 ± 1.3% | 98.6 ± 7.2% | 99.5 ± 3.1% | 95 ± 7.8% | 97.5 ± 3.8% | 100 ± 5%
CC(C)=CCC/C(C)=C/CC/C(C)=C/CC[C@]1(C)CCc2cc(O)cc(C)c2O1 [delta-tocotrienol] | > 10 µM | > 10 µM | > 10 µM | > 10 µM | > 10 µM | 0 | 0 | 0 | 0 | 0 | 107% | 93.1% | 104% | 96.9% | 108% | 97.5% | 99.8% | 98.2% | 102% | 97.9% | 94.6% | 102% | 93.2% | 101% | 113% | 90.7% | 85.3% | 98.6% | 91% | 97.1% | 99.3% | 99.1% | 81.7% | 97.1% | 105%
Cc1nc(C)c(C)nc1C [chuanxiongzine] | > 10 µM | > 10 µM | > 10 µM | > 10 µM | > 10 µM | 0 | 0 | 0.2 | 0 | 0 | 104% | 97.1% | 104% | 104% | 105% | 98.5% | 102% | 98.6% | 101% | 95.7% | 105% | 106% | 89.9% | 101% | 84.8% | 105% | 88.9% | 97.1% | 92% | 97.3% | 110% | 105% | 95.7% | 112% | 105%
C=CC(=O)N1CCC[C@@H](n2nc(-c3ccc(Oc4ccccc4)cc3)c3c(N)ncnc32)C1 [ibrutinib] | > 10 µM | > 10 µM | > 10 µM | > 10 µM | > 10 µM | 0 | 0 | 0 | 0 | 0 | 99.4% | 95.5% | 101% | 98.7% | 92.1% | 101% | 100% | 98.6% | 97.6% | 100% | 100% | 92% | 94.5% | 98.3% | 103% | 97% | 99.1% | 104% | 97.2% | 95.3% | 103% | 97.3% | 101% | 96.8% | 101%
CN(CCOc1ccc(C[C@H](Nc2ccccc2C(=O)c2ccccc2)C(=O)O)cc1)c1ccccn1 [GW-1929] | > 10 µM | > 10 µM | > 10 µM | > 10 µM | > 10 µM | 0 | 0 | 0 | 0 | 0.2 | 92% | 90.2% | 80.3% | 82.3% | 90.2% | 98.3% | 96.1% | 99.3% | 98.7% | 98.2% | 111% | 112% | 120% | 116% | 95.6% | 92.2% | 104% | 81.5% | 85.8% | 106% | 95.1% | 96.3% | 107% | 99.5% | 85.5%
CCN(CC)CCOC(=O)C(c1ccccc1)C1CCCCC1 (stereo not given) [drofenine] | > 10 µM | > 10 µM | > 10 µM | > 10 µM | > 10 µM | 0.1 | 0 | 0 | 2.6 | 0 | 103% | 110% | 100% | 107% | 85.8% | 102% | 99.1% | 100% | 98.2% | 102% | 107% | 110% | 109% | 97.3% | 98% | 93.7% | 87.5% | 86.6% | 86.9% | 87.8% | 102% | 96% | 99.3% | 88.2% | 111%
